Values joined by “and” are separate entries in the source; they are usually repeats but may differ in a detail not shown here. Identical values can stand only once.
Test system: 377384-186-R-J1-PDC complex spheroid viability
Test: Anticancer human tumor 377384-186-R-J1-PDC patient-derived pancreatic carcinoma cell line growth inhibition [CLK]
Details: for viability, T/C: stronger effect = lower value
Excerpt: A high-throughput screen of multi-cell type tumor spheroids was designed to identify active combinations of […] and targeted small molecules. Complex spheroids include a stromal component modeled by human endothelial cells (HUVEC) and fibroblasts modeled by human mesenchymal stem cells (MSCs). The concentration ranges selected for each drug and investigational agent were based upon clinically achievable concentrations if the clinical Cmax of the agent was known.
Compounds. The drugs and investigational agents: cirtuvivint (SM08502; NSC835563), CC-671 (NSC850746), vemurafenib (NSC761431), tapotoclax (NSC804041), sotorasib (NSC818433), adagrasib (NSC831453), MRTX-1133 (NSC836407), BAY2416964 (NSC825713), copanlisib (NSC816437), inavolisib (NSC800729), abemaciclib (NSC768073), osimertinib (NSC779217), entinostat (NSC756642), eltanexor (KPT-8602, NSC794443), venetoclax (NSC766270), ceralasertib (NSC777638), bortezomib (NSC756655), olaparib (NSC753686), talazoparib (NSC767125), alisertib (NSC759677), peposertib (NSC802822), gemcitabine (NSC613327), 5-fluorouracil (NSC19893), SN-38 (NSC673596), oxaliplatin (NSC266046), paclitaxel (NSC125973), and doxorubicin (NSC123127), were obtained from the National Cancer Institute (NCI) Developmental Therapeutics Program Chemical Repository. The FDA-approved anticancer drug set is available from the Developmental Therapeutics Program at https://dtp.cancer.gov/organization/dscb/obtaining/available plates.htm. […] The stock solutions were prepared in dimethyl sulfoxide (DMSO, Sigma-Aldrich, St. Louis, MO, cat. D2650), except for the platinum complexes which were prepared in saline (Quality Biological, Gaithersburg, MD, cat. 114-055-101), at 800-fold the tested concentration and stored at -70 degrees C prior to their use. All drugs and investigational agents were tested over a range starting from a high concentration at or near the clinical Cmax and decreasing in half-log increments. If the clinical Cmax for an agent had not been determined, the highest concentration tested was 10 microM.
Cell Culture. All cells were maintained in an incubator at 37 degrees C and 5% CO2 with 95% humidity. The PDC lines were cultured according to standard operating procedures established by the NCI PDMR. Briefly, all PDCs were thawed and cultured in Matrigel-coated flasks prepared with a working solution of 1X Ham's F-12 nutrient mix, without supplementation (Invitrogen, Waltham, MA, cat. 11765054), 100 U/mL penicillin-streptomycin (Invitrogen, cat. 15140122), and 2.5% Matrigel (Corning Inc., Corning, NY, cat. 354248) for the first three passages. The 947758-054-R-J2-PDC line was cultured in 6B/Colon 1A media, which includes advanced DMEM/F-12 (Thermo Fisher Scientific, cat. 12634028), 10 mM HEPES (Thermo Fisher Scientific, cat. 15630080), 1X GlutaMAX supplement (Thermo Fisher Scientific, cat. 35050061), 0.1 mg/mL primocin (InvivoGen, cat. ant-pm-2), 10% defined fetal bovine serum, heat inactivated (HyClone Laboratories Inc., cat. SH30070.03HI), 1.25 mM N-Acetyl-L-cysteine (Sigma-Aldrich, cat. A9165), 10 mM nicotinamide (Sigma-Aldrich, cat. N0636), 1X B-27 supplement (Thermo Fisher Scientific, cat. 17504044), 1X N-2 supplement (Thermo Fisher Scientific, cat. 17502048), and 10 microM Y-27632 dihydrochloride (Tocris Bioscience, cat. 1254). The 876862-298-R-J1-PDC was cultured in 6E media, which includes all 6B/Colon 1A media components plus 50% L-WRN conditioned media (ATCC, cat. CRL-3276), 50 ng/mL recombinant human EGF recombinant protein (hEGF; Thermo Fisher Scientific, cat. PHG0311), 10 ng/mL recombinant human fibroblast growth factor 10 (hGFG-10; PeproTech, cat. 100-26), 1 ng/mL recombinant human fibroblast growth factor 2 (hFGF-2; PeproTech, cat. 100-18B), and 1 µM prostaglandin E2 (PGE2; Tocris, cat. 2296). The 227483-062-R1-J1-PDC line was cultured in Panc media, containing all 6E components except hFGF-2, with the addition of 500 nM SB-431542 (Selleckchem, cat. S1067) and 10 nM gastrin (Tocris, cat. 3006). […]
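Further: spheroids exposed to agents for 7 days before reading.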
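Wherever viability, T/C is given: luminescence signal used as a stand-in for viable cells.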

SMILES	IC50 (curve of compound)	viability, T/C (compound 0.0316 µM)	viability, T/C (compound 0.1 µM)	viability, T/C (compound 0.316 µM)	viability, T/C (compound 1 µM)	viability, T/C (compound 3.16 µM)	viability, T/C (compound 10 µM)	viability, T/C (compound 0.00316 µM)	viability, T/C (compound 0.01 µM)	further results
C=CC(=O)N1CCN(c2nc(=O)n(-c3c(C)ccnc3C(C)C)c3nc(-c4c(O)cccc4F)c(F)cc23)C(C)C1 (stereo unspecified)	> 10 µM	108% and 87.8%	83.9% and 127%	100% and 101%	119% and 105%	110% and 117%	84.3% and 90.5%			
C=CC(=O)Nc1cc(Nc2nccc(-c3cn(C)c4ccccc34)n2)c(OC)cc1N(C)CCN(C)C	> 0.3 µM									viability, T/C (compound 0.000949 µM): 104% and 105%; viability, T/C (compound 0.003 µM): 84.7% and 99.9%; viability, T/C (compound 0.00949 µM): 85.3% and 108%; viability, T/C (compound 0.03 µM): 85.4% and 97.6%; viability, T/C (compound 0.0949 µM): 78% and 77.1%; viability, T/C (compound 0.3 µM): 50% and 62%
CC(C)CC(NC(=O)C(Cc1ccccc1)NC(=O)c1cnccn1)B(O)O (stereo unspecified)	0.00143 µM and 0.00126 µM									viability, T/C (compound 0.000949 µM): 76.6% and 65.6%; viability, T/C (compound 0.003 µM): 1.85% and 2.08%; viability, T/C (compound 0.00949 µM): 0.32% and 0.23%; viability, T/C (compound 0.03 µM): 0.26% and 0.38%; viability, T/C (compound 0.0949 µM): 0.18% and 0.14%; viability, T/C (compound 0.3 µM): 0.78% and 0.14%
CCCS(=O)(=O)Nc1ccc(F)c(C(=O)c2c[nH]c3ncc(-c4ccc(Cl)cc4)cc23)c1F	> 10 µM	94.9% and 92.5%	86% and 102%	120% and 114%	126% and 124%	114% and 105%	59.8% and 57.9%			
CCN1CCN(Cc2ccc(Nc3ncc(F)c(-c4cc(F)c5nc(C)n(C(C)C)c5c4)n3)nc2)CC1	0.245 µM and 0.335 µM	74% and 73.8%	61% and 58.6%	45.6% and 50.9%	39.5% and 40.4%			84.8% and 87.7%	74.9% and 74.1%	
CN1CCN(c2cc(C(=O)Nc3cc4cc(-c5cnn(C)c5)ccc4cn3)ccn2)CC1		102% [middle of 12 runs]	103% [middle of 12 runs]	25.7% [middle of 12 runs]	1.33% [middle of 12 runs]	0.96% [middle of 11 runs]	0.49% [middle of 11 runs]			IC50 (compound alone, run of 07/31/2023): 220 nM [middle of 9 runs]
CNC(=O)c1ccc(Nc2nc(OC3CCCC3)c3c(-c4ccc5nc(C)oc5c4)c[nH]c3n2)c(OC)c1		102% [middle of 12 runs]	57.2% [middle of 12 runs]	20.9% [middle of 12 runs]	20.4% [middle of 12 runs]	21% [middle of 12 runs]	21.6% [middle of 12 runs]			IC50 (compound alone, run of 08/01/2023): 130 nM [middle of 11 runs]
NC(=O)C(=Cn1cnc(-c2cc(C(F)(F)F)cc(C(F)(F)F)c2)n1)c1cncnc1	0.076 µM and 0.0574 µM									viability, T/C (compound 0.00949 µM): 78.2% and 92.5%; viability, T/C (compound 0.03 µM): 70.7% and 66.7%; viability, T/C (compound 0.0949 µM): 41.7% and 36.3%; viability, T/C (compound 0.3 µM): 27% and 18.9%; viability, T/C (compound 0.949 µM): 7.58% and 5.02%; viability, T/C (compound 3 µM): 3.05% and 2.18%

Further lines, with some results ahead:

IC50 (curve of compound)	SMILES	viability, T/C (compound 0.0316 µM)	viability, T/C (compound 0.1 µM)	viability, T/C (compound 0.316 µM)	viability, T/C (compound 1 µM)	viability, T/C (compound 3.16 µM)	viability, T/C (compound 10 µM)	viability, T/C (compound 0.00316 µM)	viability, T/C (compound 0.01 µM)	further results
1.67 µM and 1.73 µM	C=C(F)C(=O)N1CCN(c2nc(OCC3CCCN3C)nc3c2CCN(c2cccc4cccc(Cl)c24)C3)CC1CC#N (stereo unspecified)	88.4% and 94.1%	97.7% and 89.9%	86.1% and 91.8%	73.6% and 70.8%	21.3% and 26.5%	0.31% and 0.54%			
< 0.00316 µM	CCc1c2c(nc3ccc(O)cc13)-c1cc3c(c(=O)n1C2)COC(=O)[C@]3(O)CC	6.41% and 5.33%	3.96% and 2.67%	1.37% and 1.52%	0.82% and 0.63%			30% and 30.1%	17.2% and 14.6%	
4.41 µM and 3.37 µM	COC1C=CCC(C)C(C)S(=O)(=O)NC(=O)c2ccc3c(c2)N(CC2CCC21)CC1(CCCc2cc(Cl)ccc21)CO3 (stereo unspecified)	88.4% and 110%	101% and 94.2%	82% and 79%	96.1% and 69.6%	65.8% and 61.7%	11.2% and 20.1%			
0.0344 µM and 0.0283 µM	COc1c(OCCCN2CCOCC2)ccc2c3n(c(=NC(=O)c4cnc(N)nc4)nc12)CCN3	50% and 52.3%	34.4% and 30.3%	22.4% and 22.7%	14.3% and 13.8%			89.6% and 77.6%	72.4% and 61.6%	
0.0307 µM and 0.0334 µM	Cn1ncnc1[C@H]1c2n[nH]c(=O)c3cc(F)cc(c23)N[C@@H]1c1ccc(F)cc1	53.4% and 47.6%	41.8% and 43.1%					62.4% and 66.9%	57.6% and 62.5%	viability, T/C (compound 0.000316 µM): 86.8% and 87.2%; viability, T/C (compound 0.001 µM): 73.7% and 74.4%

From PubChem BioAssay AID2060616 (Molecular Pharmacology Branch, DTP, NCI, 2025)
